# Columns and labels:
# Assay in all cases: minimum inhibitory concentration, agar dilution assay
# Type in all cases: cell-based
# [1] = test system: Proteus rettgeri P7; settings: Providencia rettgeri, P7; agar dilution, 35° C., 20 hours; read-out: minimum inhibitory concentration
# Method: (§1) The antibiotic activities shown in Tables I-1 to I-8 above were determined in the following manner.
# (§2) The minimum inhibitory concentrations of the compounds of formula (I-a-1) or (I-b-1) in Tables I-1 to I-7 and the known compounds in Table I-8 on the various microorganisms shown in the above tables were measured by an agar dilution assay method using a brain heart infusion agar medium "Difco" (a product of Difco Laboratories Inc.)
# (§3) A sample of the test compound was dissolved in sterile distilled water and diluted to prepare a two-fold dilution series of the compound solution. In a petri plate of 9 cm diameter, 1 ml of the compound solution was added to 9 ml of molten sterile heart infusion agar medium (Difco Laboratories Inc.) at about 60° C. to prepare the compound-containing agar plate. An overnight culture of each test organism indicated in the above table which was prepared by stationary cultivation in Trypto-Soy broth (Eiken Chemi. Co., Ltd.) at 35° C. for 18 to 20 hours, was diluted with the Trypto-Soy broth to give approximately 10^8 cells/ml and the diluted inoculum was inoculated onto the compound-containing agar plates. After cultivating the plates at 35° C. for 20 hours, the growth of the organism was observed. The minimum concentration of the compound at which no growth of the microorganism was noted was determined, and defined as the minimum inhibitory concentration of the test compound.
# [2] = test system: Klebsiella pneumoniae K-13; settings: K13, agar dilution, 35° C., 20 hours, read-out: minimum inhibitory concentration
# Method: as §1, §2, §3
# [3] = test system: Providencia sp. P8; settings: SP.P8, agar dilution, 35° C., 20 hours, read-out: minimum inhibitory concentration
# Method: as §1, §2, §3
# [4] = test system: Escherichia coli K-12; settings: K12, agar dilution, 35° C., 20 hours, read-out: minimum inhibitory concentration
# Method: as §1, §2, §3
# [5] = test system: Escherichia coli RGN 823; settings: RGN823, agar dilution, 35° C., 20 hours, read-out: minimum inhibitory concentration
# Method: as §1, §2, §3
# [6] = test system: Serratia marcescens S18; settings: S18, agar dilution, 35° C., 20 hours, read-out: minimum inhibitory concentration
# Method: as §1, §2, §3
# [7] = test system: Citrobacter freundii GN 346; settings: GN346, agar dilution, 35° C., 20 hours, read-out: minimum inhibitory concentration
# Method: as §1, §2, §3
# [8] = test system: Enterobacter aerogenes E19; settings: Klebsiella aerogenes, E19; agar dilution, 35° C., 20 hours; read-out: minimum inhibitory concentration
# Method: as §1, §2, §3
# [9] = test system: Staphylococcus aureus Smith; settings: agar dilution, 35° C., 20 hours, read-out: minimum inhibitory concentration
# Method: as §1, §2, §3
# [10] = test system: Alcaligenes faecalis A 1; settings: A1, agar dilution, 35° C., 20 hours, read-out: minimum inhibitory concentration
# Method: as §1, §2, §3
# [11] = test system: Pseudomonas aeruginosa NCTC10490; settings: NCTC10490, agar dilution, 35° C., 20 hours, read-out: minimum inhibitory concentration
# Method: as §1, §2, §3
# [12] = test system: Staphylococcus aureus FDA 209P; settings: FDA209P, agar dilution, 35° C., 20 hours, read-out: minimum inhibitory concentration
# Method: as §1, §2, §3
# [13] = test system: Serratia marcescens T55; settings: T55, agar dilution, 35° C., 20 hours, read-out: minimum inhibitory concentration
# Method: as §1, §2, §3
# [14] = test system: Proteus mirabilis P6; settings: P6, agar dilution, 35° C., 20 hours, read-out: minimum inhibitory concentration
# Method: as §1, §2, §3
# [15] = test system: Sarcina lutea; settings: Micrococcus luteus; agar dilution, 35° C., 20 hours; read-out: minimum inhibitory concentration
# Method: as §1, §2, §3
# [16] = test system: Comamonas terrigena B-996; settings: B996, agar dilution, 35° C., 20 hours, read-out: minimum inhibitory concentration
# Method: as §1, §2, §3
# [17] = test system: Bacillus subtilis ATCC 6633; settings: ATCC6633, agar dilution, 35° C., 20 hours, read-out: minimum inhibitory concentration
# Method: as §1, §2, §3
# [18] = test system: Enterobacter cloacae 45; settings: Enterobacter cloacae, 45; agar dilution, 35° C., 20 hours; read-out: minimum inhibitory concentration
# Method: as §1, §2, §3
# [19] = test system: Pseudomonas aeruginosa IFO3445; settings: IFO3445, agar dilution, 35° C., 20 hours, read-out: minimum inhibitory concentration
# Method: as §1, §2, §3
# [20] = test system: Proteus sp. P22; settings: agar dilution, 35° C., 20 hours; read-out: minimum inhibitory concentration
# Method: as §1, §2, §3
# [21] = test system: Proteus vulgaris GN76; settings: GN76, agar dilution, 35° C., 20 hours, read-out: minimum inhibitory concentration
# Method: as §1, §2, §3
# [22] = test system: Staphylococcus epidermidis; settings: agar dilution, 35° C., 20 hours, read-out: minimum inhibitory concentration
# Method: as §1, §2, §3
# [23] = test system: Staphylococcus aureus Russell; settings: agar dilution, 35° C., 20 hours, read-out: minimum inhibitory concentration
# Method: as §1, §2, §3
# [24] = test system: Enterobacter sp. E8; settings: SP.E8, agar dilution, 35° C., 20 hours, read-out: minimum inhibitory concentration
# Method: as §1, §2, §3
SMILES,MIC [1] [µg/mL],MIC [3] [µg/mL],MIC [4] [µg/mL],MIC [5] [µg/mL],MIC [6] [µg/mL],MIC [7] [µg/mL],MIC [8] [µg/mL],MIC [9] [µg/mL],MIC [10] [µg/mL],MIC [11] [µg/mL],MIC [12] [µg/mL],MIC [13] [µg/mL],MIC [14] [µg/mL],MIC [15] [µg/mL],MIC [17] [µg/mL],MIC [18] [µg/mL],MIC [19] [µg/mL],MIC [20] [µg/mL],MIC [21] [µg/mL],MIC [22] [µg/mL],other results
CC(O)C1C(=O)N2C(C(=O)O)=C(Sc3ccccn3)CC12 (centres unmarked),3.13,0.2,0.39,3.13,12.5,6.25,6.25,0.013,6.25,50,< 0.007,25,0.39,< 0.007,< 0.007,12.5,12.5,12.5,12.5,0.05,MIC [2]: 25 µg/mL; MIC [16]: < 0.007 µg/mL; MIC [23]: 0.013 µg/mL; MIC [24]: 0.78 µg/mL
CC(C)C1C(=O)N2C(C(=O)O)=C(SC3CCCCC3)CC12 (centres unmarked),> 100,> 100,> 100,> 100,> 100,> 100,> 100,0.05,6.25,50,0.025,> 100,100,0.025,0.2,> 100,> 100,100,> 100,0.05,MIC [2]: > 100 µg/mL; MIC [16]: 0.007 µg/mL; MIC [23]: 0.025 µg/mL; MIC [24]: > 100 µg/mL
"CC(O)[C@H]1C(=O)N2C(C(=O)O)=C(Sc3ccncc3)C[C@H]12 (stereo partly drawn) [Example 59, 5,6-trans-3-(4-Pyridylthio)-6-(1-hydroxyethyl)-7-oxo-1-azabicyclo[3.2.0]hept-2-ene-2-carboxylic acid]",6.25,1.56,1.56,25,–,100,50,0.2,0.025,1.56,0.1,100,6.25,0.1,0.2,50,–,–,–,0.2,MIC [23]: 0.2 µg/mL; MIC [24]: 0.78 µg/mL
"CCC1C(=O)N2C(C(=O)O)=C(Sc3ccccn3)CC12 (centres unmarked) [Example 65, 3-(2-Pyridylthio)-6-ethyl-7-oxo-1-azabicyclo-[3.2.0]hept-2-ene-2-carboxylicacid]",6.25,1.56,–,–,12.5,–,–,–,–,25,–,25,–,–,–,–,12.5,6.25,12.5,–,–
